Results as given in patent US20070043108A1, “Use of equol for ameliorating or preventing neuropsychiatric and neurodegenerative diseases or disorders” (priority 2002, published 2007).
Read-outs that look alike come from different tables or passages of the source.

How the values were obtained:
[1] = humans; cited from earlier work
[2] = test system: mid-aged Long-Evans female rats; test: Example 17: Porsolt forced swim test and body weight in mid-aged female rats; format: in vivo, rat
Protocol: The female rats were exposed (from time of conception) to either a phytoestrogen-rich (Phyto-600) or a phytoestrogen-free (Phyto-free) diet.
At 12 months of age, the animals were analyzed using the Porsolt forced swim test that is a standard preclinical test with applications to humans for investigating the neurobiology of depression and of action of antidepressant agent (R. D. Porsolt, M. Pichon and M Jalfre, Nature 266: 730-732, 1977; and M. A. Geyer & A. Markou, in Psychopharmacology: The Fourth Generation of Progress, NY, Raven Press, pp. 787-798, 1995).
The test is designed to force rats to swim vigorously. Over time, some of the animals may become immobile which is considered a condition of behavioral despair. The total time an animal is immobile is an index of despair or depression. […] S. Hall, J. Comp. Psych., 18: 385-403, 1934), increased boli numbers during the test would indicate heighten emotional behavior. All of these parameters were recorded in this study and quantified by AnyMaze® computer software and the total time of the Porsolt forced swim test was 480 seconds or 8 minutes.
The animals were tested twice.
Test 1 compared diet exposure alone, shown as A in FIGS. 58-69 and labeled as “before equol injections.”
In the second stage of testing the Phyto-free fed females were injected with equol@ […] or 2.5 mg/kg via subcutaneous administration) for 8 days while the Phyto-600 fed females received dimethylsulfoxide (DMSO) vehicle control injections. (DMSO has been used in medicine due to its ability to penetrate deeply through the skin and other membranes without damaging them and ability to carry compounds into the circulation).
Test 2 assessed depressive behaviors following the equol treatments, shown as B in FIGS. 58-69 and labeled as “after equol injections.”

[3] = test system: Adult male Sprague-Dawley rats; test: Example 3: prostate, epididymis and body weight gain in male rats treated with racemic, R- or S-equol; format: in vivo, rat; conditions: for Body Wt Gain (g) / Epididymis (g) / Prostate (g): 0.25 mg/kg/day sc, seven days
Protocol: Adult male Sprague-Dawley rats are randomly assigned to […] groups and receive daily injections of either DMSO, a racemic mixture of equol at 0.250 mg/kg/day), R-equol at 0.250 mg/kg/day, or S-equol at 0.250 mg/kg/day. The total volume of each injection is 0.3 cc, administered sc at the nape of the rat's neck. After seven consecutive days of treatment, the rats are killed and the body weight gain during the injection period is determined.

[4] = test system: GDX males; test: Examples 5 and 6: gonadectomized (GDX) male rats treated with DHTP, equol or both; histology; format: in vivo, rat
[5] = test system: Adult male Sprague-Dawley rats; test: Example 15: elevated plus maze of equol injected male rats; format: in vivo, rat; conditions: 0.250 mg/Kg/day sc, seven days, n = 8
From the text: The elevated plus maze is a behavioral test used to quantify anxiety-related behavior and identify anxiolytic drugs (Pellow S. et al., J Neurosci Methods, 14:149-147 (1985); Current Protocols In Neuroscience (1997) 8.3.1-8.3.15, John Wiley & Sons. NY, N.Y.). The test relies on the inherent conflict between exploration of a novel environment and avoidance of its aversive features. Normally, animals spend little time and make few entries into the open arms of the maze compared to the closed arms of the maze (Imhof J. T. et al., Behav Brain Res, 56:177-180 (1993). However, animals treated with anxiolytics, such as benzodiazepines (valium), spend more time in the open arms and the number of entries into the open arms reflects a decrease in anxiety-related behaviors (Pellow S. et al., J Neurosci Methods, 14:149-147 (1985); Current Protocols In Neuroscience (1997) 8.3.1-8.3.15, John Wiley & Sons. NY, N.Y.; Chopin P. et al., Psychopharm, 110:409-414 (1993).
Adult male Sprague-Dawley rats receive daily injections of either DMSO, racemic equol (0.250 mg/Kg/day), R-equol (0.250 mg/Kg/day), or S-equol (0.250 mg/Kg/day) in a total volume of 0.3 cc DMSO by subcutaneous injection. At the end of seven consecutive days of treatment the animals are tested in the elevated plus maze in order to quantify anxiety-related behaviors.

[6] = biological target: T1, AR (Rattus norvegicus, UniProt P15207); test: Binding to the androgen receptor (prostate supernatant, [3H]DHT)
T1 construct: incubated with prostate supernatant and then passed through the 30 cm column; from tissue; host or cells: prostate supernatant
T1 sequence (P15207 1-902): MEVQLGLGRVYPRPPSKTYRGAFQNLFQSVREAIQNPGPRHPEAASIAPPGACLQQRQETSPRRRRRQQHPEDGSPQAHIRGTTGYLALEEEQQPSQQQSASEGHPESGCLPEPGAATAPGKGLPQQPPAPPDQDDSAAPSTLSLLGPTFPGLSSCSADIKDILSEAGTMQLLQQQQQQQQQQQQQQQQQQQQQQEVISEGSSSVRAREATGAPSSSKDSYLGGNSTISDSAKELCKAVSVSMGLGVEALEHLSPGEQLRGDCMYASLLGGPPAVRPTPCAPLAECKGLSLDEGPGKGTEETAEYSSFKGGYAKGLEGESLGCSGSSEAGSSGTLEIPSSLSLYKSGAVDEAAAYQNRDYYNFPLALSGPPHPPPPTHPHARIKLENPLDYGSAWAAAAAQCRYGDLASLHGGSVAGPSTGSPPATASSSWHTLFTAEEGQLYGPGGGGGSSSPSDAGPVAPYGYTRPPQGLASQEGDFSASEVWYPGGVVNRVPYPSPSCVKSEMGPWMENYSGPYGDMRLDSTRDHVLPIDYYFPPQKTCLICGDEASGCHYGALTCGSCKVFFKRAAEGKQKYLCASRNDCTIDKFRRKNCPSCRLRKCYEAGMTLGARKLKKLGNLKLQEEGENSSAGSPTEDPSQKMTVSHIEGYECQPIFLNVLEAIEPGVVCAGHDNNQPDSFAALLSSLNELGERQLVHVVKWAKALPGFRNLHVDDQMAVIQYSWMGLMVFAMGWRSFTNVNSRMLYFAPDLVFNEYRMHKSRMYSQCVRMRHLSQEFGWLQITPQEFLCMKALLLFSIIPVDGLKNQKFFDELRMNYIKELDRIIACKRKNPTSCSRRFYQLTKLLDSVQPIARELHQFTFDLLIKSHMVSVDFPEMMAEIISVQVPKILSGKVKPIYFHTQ

[7] = Test 2, Phyto-free females after equol for 8 days

Row | binding to the androgen receptor ([6]; listed as Equol racemic) | SMILES | proportion circulating in the free or unbound form in plasma [1] | total distance traveled ([2]; Test 2, Phyto-free females after equol 5 mg/day sc for 8 days) | number of boli [2, 7] | number of dives [2, 7] | total time immobile [2, 7] | total time mobile ([2]; Test 2, after vs before equol injections) | decrease in body weight over controls ([2]; after the 8 day treatment interval) | Body Weight Loss (grams) ([2]; mid-aged females, end of 8 day treatment, ±SEM) | Body Wt Gain (g) [3] | Epididymis (g) [3] | Prostate (g) [3] | decrease in body weight ([3]; equol experiments) | reduction in white adipose tissue deposition ([3]; racemic equol injections) | epididymal histology (H&E) ([4]; intact males vs control males) | prostate histology (H&E) ([4]; intact males vs intact control) | Center Area [5] | Open Arm Time [5] | binding to the androgen receptor [6]
1 | does not bind the androgen receptor | Oc1ccc(C2COc3cc(O)ccc3C2)cc1 (racemic) [equol, 7-hydroxy-3(4′hydroxyphenyl)-chroman] | Approximately 50% | increased and similar to control values | reduced after equol treatments | significantly reduced and comparable to control levels | significantly reduced and similar to controls | significantly increased | 2.6 fold | −31.2 (±4.8*) grams | 56.1 (±3.7) g | 0.89 (±.03) g | 0.38 (±0.02) g | around 10% | around 36% | overall smaller ducts | involution and consist of more closely spaced, atrophic glands | 37.1 ± 6.3 s | 40.9 ± 7.0 s | does not compete with 5α-DHT for the AR
2 |  | Oc1ccc([C@@H]2COc3cc(O)ccc3C2)cc1 [R-equol] |  |  |  |  |  |  |  |  | 45.6 (±5.5) g | 0.85 (±0.04) g | 0.31 (±0.02) g |  |  |  |  | 36.4 ± 7.6 s | 50.0 ± 10.0 s | does not bind the androgen receptor
